Assay results published in PMC6987128, “Target protein-oriented isolation of Hes1 dimer inhibitors using protein based methods” (Scientific Reports, 2020).

Target: T1, Hes1 dimer formation (Hes1-Hes1 interaction) (Rattus norvegicus, UniProt Q04666)
T1 construct: Glutathione-S-transferase (GST) fused rat Hes1(3–281) protein was expressed in Escherichia coli; GST (N, cleaved yes); GST (N); made in house; host or cells: Escherichia coli JM109 (pGEX-ratHes1 3-281)
T1 sequence (Q04666 3-281): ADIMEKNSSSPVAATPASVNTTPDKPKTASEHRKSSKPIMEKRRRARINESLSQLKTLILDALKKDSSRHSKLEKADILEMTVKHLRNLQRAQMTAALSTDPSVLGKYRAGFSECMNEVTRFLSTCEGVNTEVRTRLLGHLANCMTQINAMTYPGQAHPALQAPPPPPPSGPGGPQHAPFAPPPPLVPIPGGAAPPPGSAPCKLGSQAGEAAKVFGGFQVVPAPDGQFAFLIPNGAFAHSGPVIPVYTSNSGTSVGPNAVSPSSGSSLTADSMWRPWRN
Experiment: Hes1-Hes1 interaction fluorescent plate assay (Hes1 dimer formation inhibition)
Assay type: binding
Description: It is essential to inhibit undesired PPIs in drug development, and bioactivity-guided isolation using the inhibitory activity of PPIs is an attractive method to obtain effective inhibitors. However, currently there are only a few examples of such approaches using PPI assay systems[22],[23]. We previously developed a Hes1-Hes1 interaction fluorescent plate assay and reported the screening results of our natural products compound library (Fig. 2A)[24]. Glutathione-S-transferase (GST) fused rat Hes1(3–281) protein was expressed in Escherichia coli and purified rat Hes1 protein was immobilized on the bottom of 96 well plates. We prevented GST-GST interactions, which would result in false positives, by preparing GST-free Hes1 protein by GST cleavage with Turbo3C protease. After labeling Hes1 with Cy3, this florescent Hes1 protein was added to the wells of the above plate and incubated for 24 h at 4 °C. Hes1-Hes1 interaction was successfully detected as Cy3 fluorescence intensity. Using this assay system, we screened our 118 plant extract library and identified the MeOH extract of Psidium guajava leaves to contain naturally occurring compounds that inhibit Hes1 dimer formation. The MeOH extract (29.9 g) was fractionated using Diaion HP-20 with a MeOH-acetone solvent system to afford fractions 1A to 1C. Active fraction 1A (27.2 g) was suspended in 10% aq. MeOH and partitioned with hexane, EtOAc and BuOH to obtain hexane (1.1 g), EtOAc (5.7 g), BuOH (4.7 g) and aqueous (18.9 g) soluble fractions. Part of the active BuOH soluble fraction was subjected to ODS column chromatography and reverse-phase HPLC. Activity-guided separation yielded ten compounds (1–10; Fig. 3). The isolated compounds were identified as morin (1)[25], isoquercitrin (2)[26], methyl gallate (3)[27], (+)-catechin (4)[28],[29], dihydrophaseic acid (5)[30], quercetin (6)[26],[31], avicularin (7)[32],[33], gallic acid (8)[34], protocatechuic acid (9)[35] and 4-hydroxybenzoic acid (10)[36] based on comparisons of their spectral data with spectra in the literature.
Hes1-bound microplate wells[24] (Nunc Immobilizer^TM Amino Plate, Thermo) were incubated with 50 μL of Cy3-labeled-Hes1 in NET-N buffer (NET buffer (20 mM Tris-HCl, pH 7.5, 200 mM NaCl, 1 mM EDTA) containing 0.05% Nonidet® P-40, ca. 7 mg/L, dye/protein = 0.4) for 24 h at 4 °C. After removing the protein solution, the wells were washed twice with 200 μL of PBST, then each compound solution (in NET-N buffer, 50 μL) was added and the plates were incubated for 1 h at RT in the dark. The wells were washed twice with 200 μL of PBST, then dried under reduced pressure for 1 h in the dark. The Cy3 dye was excited at 544 nm and emission was monitored at 590 nm using a microplate reader (Fluoroskan Ascent, Thermo Labsystems, Vantaa, Finland). The assays were typically carried out in three individual wells, and the mean value and SD were calculated. The equilibrium between dimer formation between Cy3-Hes1/Cy3-Hes1 (in solution) and Cy3-Hes1/immobilized-Hes1 allowed the detection of Cy3-Hes1/immobilized-Hes1.
Typical procedure; Nunc Immobilizer^TM Amino 96 well Plate, white (Nalge Nunc Int., NY, USA) was used for immobilizing of Hes1. The micro plate wells were incubated with 100 µl of Hes1 (10 µg/mL in PBS) 2 h at 4 °C. After removing protein solution, the wells were incubated for 2 h at 4 °C with 100 µL of 10 mM ethanolamine (in 100 mM Na2CO3 buffer, pH 9.6) to block remaining activated units on the well. Then, wells were washed twice with 200 µL of PBST (PBS containing 0.05% Tween 20).
The Cy3 dye reagent was prepared as 1 vial of Cy3 monofunctional dye reagent (succinimidylester type; GE Healthcare, Buckinghamshire, UK) in DMSO (50 µL) and stored at -20 °C. Cy3-labeled Hes1 was prepared by mixing of protein in PBS with Cy3 dye reagent in DMSO (typically 0.6 µL of DMSO solution to 1 mL of 10 mg/L protein solution in PBS) for 30 min at 4 °C in the dark. […]

remaining activity at 2.5 µM (24 h, 2.5 μM compound, 0 μM = 100, read-out: Hes1 dimer formation rate (%)): 50.4%
remaining activity at 5 µM (24 h, 5 μM compound, 0 μM = 100, read-out: Hes1 dimer formation rate (%)): 27.6%
remaining activity at 10 µM (24 h, 10 μM compound, 0 μM = 100, read-out: Hes1 dimer formation rate (%)): 18.1%
remaining activity at 25 µM (24 h, 25 μM compound, 0 μM = 100, read-out: Hes1 dimer formation rate (%)): 4.1%
IC50 (Cy3-labeled Hes1 / immobilized Hes1, compound 1 h at RT, read-out: Hes1 dimer formation inhibitory activity IC50): 2.53 µM
Compound: CC1OC(Oc2cc3c(=O)oc4c(O)c(O)cc5c(=O)oc(c2O)c3c45)C(O)C(O)C1OC(=O)c1cc(O)c(O)c(O)c1 [Compound 11, 4-O-(4″-O-galloyl-α-L-rhamnopyranosyl)ellagic acid]
